The values below come from patent EP4616854A1, “TREATMENT OF MUSCLE SARCOPENIA” (Molius Saglik Teknolojileri Anonim Sirketi, priority 2024, dated 2025).

One series deals with C2C12 myoblasts. Nature of the series: Differentiation of C2C12 myoblasts to myotubes under drug treatment, without ceramide. It is filed as cell-based, mouse. The settings on record: for ability to facilitate myotube differentiation without the presence of ceramide: C2C12 cells not treated with C2-ceramide, Fig. 15. How it is done: The C2C12 cells (C2C12 mouse C3H muscle myoblast purchased from Sigma) were maintained in modified Eagle's medium (DMEM) with 10 % fetal bovine serum (FBS) and 1 % penicillin/streptomycin (P/S) solution in a humidified incubator with 5 % CO2 at 37 °C. […] […] Then, the medium was changed twice, at two-day intervals, with a differentiation medium (DMEM with 2% FBS and 1% P/S) with drug candidates to differentiate myoblasts into myotubes. […] Cell viability was measured spectrophotometrically by Cell Counting kit-8. The expression level of target proteins (ANXA2, CLMP, Cyc1, and SDHB), myogenic markers (MyoG and MyH3) and α-Tubulin (internal control) were detected using Western blots. All experiments were performed with 3 replicates.

Series [1] relates to C2-ceramide treated C2C12 cell line. Nature of the series: In vitro sarcopenia model (Example 1): myotube phenotype and MyH3 immunofluorescence. The settings on record: for MyH3 intensity compared to the control group: mean brightness of MyH3 staining, Fig. 5B. It is filed as cell-based, mouse. The method, then:
(§1) The C2C12 cells (C2C12 mouse C3H muscle myoblast purchased from Sigma) were maintained in modified Eagle's medium (DMEM) with 10 % fetal bovine serum (FBS) and 1 % penicillin/streptomycin (P/S) solution in a humidified incubator with 5 % CO2 at 37 °C. 40 µM C2-ceramide was used for developing an in vitro model of sarcopenia in the C2C12 cell line, i.e., in vitro sarcopenia model. One day after 300×10^3 cells were seeded per well in a 6-well plate, N-acetyl-D-sphingosine (C2-ceramide) and the drug candidates (dissolved in DMSO) were administered in the maintenance condition (DMEM with 10 % FBS and 1 % P/S) for two days. Then, the medium was changed twice, at two-day intervals, with a differentiation medium (DMEM with 2% FBS and 1% P/S) with drug candidates to differentiate myoblasts into myotubes. Furthermore, siRNAs for Anxa2 and Clmp and overexpression plasmids for Cyc1 and Sdhb were transfected into the cells to examine the effect of the target proteins on the in vitro sarcopenia model. Cell viability was measured spectrophotometrically by Cell Counting kit-8. The expression level of target proteins (ANXA2, CLMP, Cyc1, and SDHB), myogenic markers (MyoG and MyH3) and α-Tubulin (internal control) were detected using Western blots. All experiments were performed with 3 replicates.
The cells were, once again, washed 3 times in PBS and then permeabilized in 0.1 % TritonX-100 for 15 min at room temperature. The cells were then incubated for 1 h in 2 % bovine serum albumin (BSA) solution followed by overnight incubation in anti-Myosin/MyH3 diluted in 0.1 % BSA at 4 °C. Primary antibody solution was washed away with PBS, then incubated in fluorescent dye-labelled secondary antibody diluted in 0.1 % BSA for 45 min at room temperature protected from light. Finally, the samples were washed 3 times with 1xPBS-T and mounted with DAPI mount putted cover glass on the cells.
The cell brightness was measured by ImageJ software (NIH). For each experiment condition, three different areas were photographed with same area size (5038848 by ImageJ), the mean brightness of each image was obtained for statistical analysis. The t test was used to check the statistical differences between any two experiment conditions.

The test system is the same in series [2]. The experiment in a line: In vitro sarcopenia model (Example 1): Western blot of target proteins and myogenic markers. It is filed as cell-based, mouse. The method, then:
as §1
The cells were washed with PBS and lysed with CelLytic M (C2978, Sigma-Aldrich) lysis buffer containing protease inhibitors. The cell lysates were centrifuged at 12 000 rpm for 5 min and supernatants were collected. A protein assay solution (Bio-Rad) was used for the determination of protein concentration. The absorbance of the proteins was measured spectrophotometrically at 595 nm by microplate reader (Hidex Sense Beta Plus). Protein electrophoresis was performed using Mini-PROTEAN® TGXTM Precast Gels (Bio-Rad) and the separated proteins were transferred to a Trans-Blot Turbo Mini 0.2 um PVDF Transfer Packs membrane (Bio-Rad) by using Trans-Blot® TurboTM Transfer System (Bio-Rad). The membrane was blocked with 5 % skim milk for 30 min at 4 °C with gentle rocking. It was immunoblotted with primary antibodies against MyH3, MyoG, ANXA2, CLMP, Cyc1, and SDHB, as well as α-Tubulin, as an internal control, overnight at 4 °C with gentle rocking. Goat anti-Rabbit HRP or goat anti-mouse IgG-HRP was used as secondary antibody. Reaction with secondary antibody proceeded for 30 min at 4 °C with gentle rocking.
On the technique in general: A western blot detects proteins with antibodies after separation by electrophoresis.

The next series in a line: in vitro. Conditions: mouse, c2c12 cells. How it is done:
The effects of the drugs on the C2C12 cell viability were tested by MTT (Thiazolyl Blue Tetrazolium Bromide) assay. 1×10^4 cells were seeded per well in a 96-well plate in 100 µL growth media. After one day of cell seeding, the cells were treated with different concentrations of the drugs dissolved in 0.1 % DMSO and 100 µL of the media for one day. After the treatment period, 5 mg/ml MTT (M2128, Sigma-Aldrich) solution in PBS (10 µL) was added to each well. After one hour, the MTT solution and all media were removed from the wells. 100 µl of DMSO was added and mixed to dissolve the formazan crystals. Cell viability was analysed by measuring the absorbance of the dissolved formazan at a wavelength of 570 nm with a microplate reader (Hidex Sense Beta Plus).

[3] abbreviates: selected non-toxic concentration of drug candidate, Fig. 11.
Setting [4] is: 40 µM ceramide plus drug candidate at selected concentration.
The mark [5] stands for this setting: 5 µM, in vitro sarcopenia model.
Where [6] appears, read: drug plus ceramide (sarcopenic cells), concentration not given.
[7] abbreviates: 2.5 µM, in vitro sarcopenia model.
Where [8] appears, read: 20 µM, in vitro sarcopenia model.
[9] abbreviates: 40 µM ceramide alone versus control, 4 days of differentiation.

“Also recorded” adds a separate entry of the source. Read-outs that look alike come from different tables or passages of the source.

On to `CCCCCCCCCC(=O)NC(CN1CCOCC1)C(O)c1ccccc1` (racemic) [DL-PDMP], for which the “differentiation of myoblasts to myotubes” value in the series with C2C12 myoblasts (setting [3]) is on record as “highly differentiated”. The “effect on myotubes (phenotypic change)” value in series [1] (setting [4]) was “Only treatment with withaferin-A improved the myotubes”.

As for `OCCCNc1cc(-c2ccnc(Nc3cccc(Cl)c3)n2)ccn1` [CGP-60474], the “differentiation of myoblasts to myotubes” value in the series on C2C12 myoblasts (setting [3]) is listed as “highly differentiated”. The “effect on myotubes (phenotypic change)” value in series [1] (setting [4]) is given as “Only treatment with withaferin-A improved the myotubes”.

On to `Nc1[nH]nc2nnc(-c3c(-c4ccccc4)nn4ccccc34)cc12` [FR-180204], for which, in the series on C2C12 myoblasts, the “ability to facilitate myotube differentiation without the presence of ceramide” value is “exhibited the ability to facilitate myotube differentiation” and the “ability to improve the myotube fusion in healthy muscle myoblasts” value is reported as “ability to improve the myotube fusion”. For the same compound, in series [1] (setting [4]), the “effect on myotubes (phenotypic change)” value is on record as “promising effect in enhancing myotube cells”. For the same compound, in series [2] (setting [5]), the Cyc1 expression entry is “significantly increased”, the MyH3 expression entry is listed as “significantly increased” and the MyoG expression result is “significantly increased”. Besides, in series [2] (setting [6]), the “expression level of CYC1” value was “significantly increase”, the “expression level of MyH3” value is on record as “significantly increase” and the “expression level of MyoG” value is on record as “significantly increase”.

`Cc1ccc(CNc2ncnc3ccc(-c4ccc(CO)o4)cc23)o1` [ML-167]: in the series on C2C12 myoblasts, the “ability to facilitate myotube differentiation without the presence of ceramide” value is “exhibited the ability to facilitate myotube differentiation” and the “ability to improve the myotube fusion in healthy muscle myoblasts” value was “ability to improve the myotube fusion”. The “effect on myotubes (phenotypic change)” value in series [1] (setting [4]) is on record as “promising effect in enhancing myotube cells”. In addition, in series [2] (setting [7]), the Cyc1 expression result was “notable upregulation”, the MyH3 expression result is “notable upregulation” and the MyoG expression result is “notable upregulation”. Further, in series [2] (setting [5]), the Cyc1 expression result was “notable upregulation”, the MyH3 expression result was “notable upregulation” and the MyoG expression result was “notable upregulation”. In series [2] (setting [6]), the “expression level of CYC1” value is “significantly increase”, the “expression level of MyH3” value is listed as “significantly increase” and the “expression level of MyoG” value is “significantly increase”.

Consider `O=C1c2c(O)ccc(O)c2C(=O)c2c(NCCNCCO)ccc(NCCNCCO)c21` [Mitoxantrone], for which, in the series on C2C12 myoblasts (setting [3]), the “differentiation of myoblasts to myotubes” value is “less differentiated”.

Take `Cc1ccc([N+](=O)[O-])cc1S(=O)(=O)N(C)/N=C/c1cnc2ccc(Br)cn12` [PIK-75]: in the series with C2C12 myoblasts (setting [3]), the “differentiation of myoblasts to myotubes” value was “highly differentiated”. Further, the “effect on myotubes (phenotypic change)” value in series [1] (setting [4]) is recorded as “Only treatment with withaferin-A improved the myotubes”.

The compound `CC1=C(CO)C(=O)OC(C(C)C2CCC3C4CC5OC56C(O)C=CC(=O)C6(C)C4CCC23C)C1` (centres unmarked) [Withaferin-A, withaferin-A] registered an MNTC at 24 h in “in vitro” of 50 nM. Moreover, the “differentiation of myoblasts to myotubes” value in the series with C2C12 myoblasts (setting [3]) is listed as “highly differentiated”. Also, the “effect on myotubes (phenotypic change)” value in series [1] (setting [4]) is listed as “improved the myotubes similarly to the control sample”. The “MyH3 intensity compared to the control group” value in series [1] is on record as “no statistical difference”. In series [2] (setting [6]), the “expression level of CYC1” value is on record as “activating effect”, the “expression level of MyH3” value is listed as “increase; also recorded: expressed as much as control samples” and the “expression level of MyoG” value is given as “increase”. Moreover, in series [2] (drug plus ceramide, concentration not given), the “expression level of ANXA2” value is listed as “inhibitory effect; also recorded: decreased”.

Take `COC[C@H]1OC(=O)c2coc3c2[C@@]1(C)C1=C(C3=O)[C@@H]2CCC(=O)[C@@]2(C)C[C@H]1OC(C)=O` [Wortmannin]: in the series with C2C12 myoblasts, the “differentiation of myoblasts to myotubes” value is on record as “moderately differentiated”. Moreover, the “effect on myotubes (phenotypic change)” value in series [1] is listed as “Only treatment with withaferin-A improved the myotubes”.

For the compound `CN(C)CCOC(c1ccc(Cl)cc1)c1ccccn1` (centres unmarked) [carbinoxamine], the “effect on myotubes (phenotypic change)” value in series [1] (setting [4]) is “promising effect in enhancing myotube cells”. Moreover, in series [2] (setting [8]), the CYC1 expression result is “large improvement”, the MyH3 expression result is “increase” and the MyoG expression result is on record as “increase”. Moreover, in series [2] (setting [6]), the “expression level of CYC1” value is “increase”, the “expression level of MyH3” value was “increase” and the “expression level of MyoG” value was “increase”.

For the compound `CCCCCCCCCCCCC/C=C/[C@@H](O)[C@H](CO)NC(C)=O` [ceramide, N-acetyl-D-sphingosine], the myotube formation entry in series [1] (40 µM ceramide alone, after 4 days of differentiation) was “less myotubes were formed”. Moreover, the “MyH3 intensity compared to the control group” value in series [1] is reported as “significantly deceased; also recorded: significantly decreased”. Also, in series [2] (setting [9]), the “expression level of MyH3” value is “decreased” and the “expression level of MyoG” value is reported as “decreased”. Moreover, the “expression level of ANXA2” value in series [2] (ceramide alone versus control) is “increased”.

Consider `CC(C)(Oc1ccc(Cl)cc1)C(=O)O` [clofibric-acid, clofibric acid], for which the MNTC at 24 h in the series “in vitro” is 5000 nM.

In the series “in vitro”, `CC(=O)c1c(C)c2cnc(Nc3ccc(N4CCNCC4)cn3)nc2n(C2CCCC2)c1=O` [palbociclib] came in with an MNTC at 24 h of 5000 nM.

`Cc1c(C)c2c(c(C)c1O)CCC(C)(COc1ccc(CC3SC(=O)NC3=O)cc1)O2` (centres unmarked) [troglitazone] had an MNTC at 24 h in the series “in vitro” of 500 nM.
